Patent US8883827B2, “Azole derivatives as WTN pathway inhibitors” (Oslo University Hospital HF, priority 2009, dated 2014)

Tests used:
canonical Wnt signaling = test: IC50 in STF/REN HEK293 cells, 50% Wnt3a-CM; type: cell-based; conditions: Homo sapiens; STF/REN HEK293, 50% Wnt3a-CM, 24 h
Procedure, shortened: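 HEK293 cells carrying STF/REN reporters seeded at 80,000/well on poly-L-lysine; after 24 h, exposed 24 h to compound in 50% Wnt3a-conditioned medium. Firefly and Renilla luciferase measured by Dual-Glo; IC50 fitted to a Langmuir binding isotherm.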

PKG1α(h) = molecular target: T1, PKG1α(h) (Homo sapiens, UniProt Q13976); test: Kinase screen; type: biochemical; conditions: 0.1% DMSO control = 100%
T1 construct: purchased Millipore (KinaseProfiler service)

MST1(h) = molecular target: T2, MST1(h) (Homo sapiens, UniProt Q13043); test: Kinase screen; type: biochemical; conditions: 0.1% DMSO control = 100%
T2 construct: purchased Millipore (KinaseProfiler service)

Abl(h) = molecular target: T3, Abl(h) (Homo sapiens, UniProt P00519); test: Kinase screen; type: biochemical; conditions: 0.1% DMSO control = 100%
T3 construct: purchased Millipore (KinaseProfiler service)

SW480 cells [1] = test: Real-time RT-PCR of Wnt target genes; type: cell-based; conditions: 10 (or 25) M as printed, 72 h, relative to GAPDH
Protocol: (§1) A real-time RT-PCR analysis was employed to confirm specific inhibition of expressed Wnt target genes. […] After 24 hours, solutions containing compound No. 1 were added at 10 or 25 μm final concentrations. Media containing the test compound were changed daily for 3 days. […] Real Time RT-PCR (SYBR Green PCR Mastermix, Stratagene) was performed using the following primers on a Mx3000P® QPCR System real-time thermal cycler (Stratagene): Results were calculated as the ratio of expression of target gene to a control gene (GAPDH).

DLD-1 cells = test: Real-time RT-PCR of Wnt target genes; type: cell-based; conditions: 10 (or 25) M as printed, 72 h, relative to GAPDH
Protocol: as §1

[2] = tested on: LiCl-induced activation of canonical Wnt signaling; test: LiCl-induced ST-Luc reporter assay in HEK293 cells; type: cell-based; conditions: Homo sapiens; HEK293, 25 mM LiCl, 24 h; read-out: IC50, antagonism of LiCl-induced activation of canonical Wnt signaling
Protocol: Transfection of HEK293 cells was performed as described in Example 22, but using 0.23 μg NF-κB-Luciferase and 0.02 μg Renilla. […] All treated reporter cells were finally lysed and the firefly luciferase and Renilla activities were measured on a 20/20n Luminometer (Turner BioSystems) as described in the Dual-Glo™ Luciferase Assay System Technical Manual (Promega).

SHP-1(h) = molecular target: T4, SHP-1(h) (Homo sapiens, UniProt P29350); test: Phosphatase screen; type: biochemical; conditions: 0.1% DMSO control = 100%
T4 construct: purchased Millipore (KinaseProfiler service)

cKit(h) = molecular target: T5, cKit(h) (Homo sapiens, UniProt P10721); test: Kinase screen; type: biochemical; conditions: 0.1% DMSO control = 100%
T5 construct: purchased Millipore (KinaseProfiler service)

CK1γ1(h) = molecular target: T6, CK1γ1(h) (Homo sapiens, UniProt Q9HCP0); test: Kinase screen; type: biochemical; conditions: 0.1% DMSO control = 100%
T6 construct: purchased Millipore (KinaseProfiler service)

AMPKα1(h) = molecular target: T7, AMPKα1(h) (Homo sapiens, UniProt Q13131); test: Kinase screen; type: biochemical; conditions: 0.1% DMSO control = 100%
T7 construct: purchased Millipore (KinaseProfiler service)

CDK6/cyclinD3(h) = molecular target: T8, CDK6/cyclinD3(h) (Homo sapiens, UniProt Q00534); test: Kinase screen; type: biochemical; conditions: 0.1% DMSO control = 100%
T8 construct: purchased Millipore (KinaseProfiler service)

MAPKAP-K2(h) = molecular target: T9, MAPKAP-K2(h) (Homo sapiens, UniProt P49137); test: Kinase screen; type: biochemical; conditions: 0.1% DMSO control = 100%
T9 construct: purchased Millipore (KinaseProfiler service)

CK2α2(h) = molecular target: T10, CK2α2(h) (Homo sapiens, UniProt P19784); test: Kinase screen; type: biochemical; conditions: 0.1% DMSO control = 100%
T10 construct: purchased Millipore (KinaseProfiler service)

Plk3(h) = molecular target: T11, Plk3(h) (Homo sapiens, UniProt Q9H4B4); test: Kinase screen; type: biochemical; conditions: 0.1% DMSO control = 100%
T11 construct: purchased Millipore (KinaseProfiler service)

TNF-α pathway = test: NF-κB-Luciferase reporter in HEK293 cells with rTNF-α; type: cell-based; conditions: 1 or 10 μM, 24 h, 10 ng/ml rTNF-α
Excerpt: 2) HEK293 cells transiently transfected with a NF-κB-Luciferase reporter (NF-κB-Luc—purchased from Promega).

DUSP22(h) = molecular target: T12, DUSP22(h) (Homo sapiens, UniProt Q9NRW4); test: Phosphatase screen; type: biochemical; conditions: 0.1% DMSO control = 100%
T12 construct: purchased Millipore (KinaseProfiler service)

ROCK-I(h) = molecular target: T13, ROCK-I(h) (Homo sapiens, UniProt Q13464); test: Kinase screen; type: biochemical; conditions: 0.1% DMSO control = 100%
T13 construct: purchased Millipore (KinaseProfiler service)

EphB4(h) = molecular target: T14, EphB4(h) (Homo sapiens, UniProt P54760); test: Kinase screen; type: biochemical; conditions: 0.1% DMSO control = 100%
T14 construct: purchased Millipore (KinaseProfiler service)

TCPTP(h) = molecular target: T15, TCPTP(h) (Homo sapiens, UniProt P17706); test: Phosphatase screen; type: biochemical; conditions: 0.1% DMSO control = 100%
T15 construct: purchased Millipore (KinaseProfiler service)

SW480 cells [3] = test: MTS cell growth assay (Example 27); type: cell-based; conditions: Homo sapiens, 72 h, read-out: IC50, reduction of proliferation
Protocol: Thus, the effect of compound No. 1 on cell growth was tested in SW480 cell lines using MTS analysis (MTS is the colorimetric substrate 3-(4,5-dimethylthiazol-2-yl)-5-(3-carboxymethoxyphenyl)-2-(4-sulfophenyl)-2H-tetrazolium).
3000 cells were seeded on 96 well plates in quadruplicates for each sample. The following day, cell culture medium was mixed with compound No. 1 in various concentrations or with 0.5% DMSO vehicle (control) and added to the wells.
Eight wells of seeded control cells, defining incubation time 0 (t0), were incubated with 20 μl substrate in 100 μl phenol-free D-MEM (Invitrogen) for 3 hours, as described in the CellTiter 96® AQueous Non-Radioactive Cell Proliferation Assay (MTS) protocol (Promega). The A490 value was recorded.
Samples were measured after 72 hours. The following formula was used to determine the single well relative A490 sample values: ((Sample A490−Average A490 to)×100)/(Average A490 0.5% DMSO control−Average A490 t0).

T2 sequence (Q13043 whole entry): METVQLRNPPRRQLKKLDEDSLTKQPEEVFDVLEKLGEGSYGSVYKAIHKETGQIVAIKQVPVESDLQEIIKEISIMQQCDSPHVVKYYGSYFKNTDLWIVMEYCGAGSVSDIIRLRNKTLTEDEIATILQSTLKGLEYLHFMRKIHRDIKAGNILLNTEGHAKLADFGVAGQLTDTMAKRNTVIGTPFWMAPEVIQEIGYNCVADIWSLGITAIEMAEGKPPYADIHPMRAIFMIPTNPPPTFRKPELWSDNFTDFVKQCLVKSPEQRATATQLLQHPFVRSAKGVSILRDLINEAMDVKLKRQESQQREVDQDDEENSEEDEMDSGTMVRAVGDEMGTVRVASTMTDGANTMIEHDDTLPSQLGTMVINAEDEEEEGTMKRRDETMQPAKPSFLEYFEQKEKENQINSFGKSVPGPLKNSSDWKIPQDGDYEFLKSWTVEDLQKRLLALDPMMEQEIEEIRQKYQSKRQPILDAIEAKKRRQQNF
T3 sequence (P00519 whole entry): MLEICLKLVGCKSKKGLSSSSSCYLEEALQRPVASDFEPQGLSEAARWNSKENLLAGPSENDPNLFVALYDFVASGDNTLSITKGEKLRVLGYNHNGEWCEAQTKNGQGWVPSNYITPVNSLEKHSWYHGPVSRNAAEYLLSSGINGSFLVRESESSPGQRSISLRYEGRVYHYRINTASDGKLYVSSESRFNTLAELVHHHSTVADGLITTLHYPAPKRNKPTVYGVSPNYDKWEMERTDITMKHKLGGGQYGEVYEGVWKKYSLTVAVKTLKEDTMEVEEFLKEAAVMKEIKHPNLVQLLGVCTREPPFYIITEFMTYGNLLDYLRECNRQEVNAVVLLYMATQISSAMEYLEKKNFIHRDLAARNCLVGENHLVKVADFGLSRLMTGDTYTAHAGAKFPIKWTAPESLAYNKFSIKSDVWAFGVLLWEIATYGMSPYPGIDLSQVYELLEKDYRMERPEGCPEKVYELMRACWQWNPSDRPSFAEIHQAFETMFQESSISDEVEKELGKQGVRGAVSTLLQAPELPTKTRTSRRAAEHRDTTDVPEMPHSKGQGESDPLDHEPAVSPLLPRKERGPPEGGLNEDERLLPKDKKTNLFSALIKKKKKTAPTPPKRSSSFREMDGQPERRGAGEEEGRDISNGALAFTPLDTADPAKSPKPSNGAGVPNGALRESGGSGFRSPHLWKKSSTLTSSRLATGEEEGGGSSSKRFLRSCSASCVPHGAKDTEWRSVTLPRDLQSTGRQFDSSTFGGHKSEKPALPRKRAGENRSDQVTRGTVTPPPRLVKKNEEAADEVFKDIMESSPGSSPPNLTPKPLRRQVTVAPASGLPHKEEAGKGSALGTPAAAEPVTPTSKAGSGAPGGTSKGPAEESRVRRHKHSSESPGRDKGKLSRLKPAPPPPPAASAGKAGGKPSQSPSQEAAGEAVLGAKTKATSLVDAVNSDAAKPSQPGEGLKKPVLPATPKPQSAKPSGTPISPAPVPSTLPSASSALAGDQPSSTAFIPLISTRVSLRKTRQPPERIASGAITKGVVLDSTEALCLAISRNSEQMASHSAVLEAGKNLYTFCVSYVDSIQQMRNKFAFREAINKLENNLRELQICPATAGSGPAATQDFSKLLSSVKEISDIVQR
T5 sequence (P10721 26-976): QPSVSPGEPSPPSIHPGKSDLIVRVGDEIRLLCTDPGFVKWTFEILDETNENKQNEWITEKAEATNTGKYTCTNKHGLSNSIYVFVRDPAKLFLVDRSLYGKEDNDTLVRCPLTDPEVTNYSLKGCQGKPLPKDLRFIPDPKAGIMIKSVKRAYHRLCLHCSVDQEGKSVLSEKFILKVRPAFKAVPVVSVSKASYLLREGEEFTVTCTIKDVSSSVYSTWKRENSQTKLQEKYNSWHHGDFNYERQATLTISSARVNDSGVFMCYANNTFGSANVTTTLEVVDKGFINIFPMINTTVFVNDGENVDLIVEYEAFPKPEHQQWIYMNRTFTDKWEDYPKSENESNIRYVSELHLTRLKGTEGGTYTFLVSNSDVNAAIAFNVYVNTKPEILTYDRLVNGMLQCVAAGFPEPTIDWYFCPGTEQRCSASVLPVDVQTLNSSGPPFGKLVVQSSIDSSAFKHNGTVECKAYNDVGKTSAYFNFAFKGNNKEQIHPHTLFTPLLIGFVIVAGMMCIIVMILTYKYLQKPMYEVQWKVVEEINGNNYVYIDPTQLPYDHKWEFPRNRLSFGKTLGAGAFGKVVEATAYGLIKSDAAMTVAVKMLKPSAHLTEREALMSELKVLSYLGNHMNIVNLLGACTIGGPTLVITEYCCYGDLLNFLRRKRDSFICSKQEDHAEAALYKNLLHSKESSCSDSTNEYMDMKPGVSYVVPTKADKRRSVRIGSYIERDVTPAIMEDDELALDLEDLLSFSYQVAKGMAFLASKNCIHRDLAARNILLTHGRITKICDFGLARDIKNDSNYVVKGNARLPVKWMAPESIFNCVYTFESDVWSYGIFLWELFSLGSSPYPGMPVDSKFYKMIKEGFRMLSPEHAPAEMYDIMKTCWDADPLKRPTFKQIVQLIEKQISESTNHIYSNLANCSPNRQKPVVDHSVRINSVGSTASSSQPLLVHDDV
T10 sequence (P19784 whole entry): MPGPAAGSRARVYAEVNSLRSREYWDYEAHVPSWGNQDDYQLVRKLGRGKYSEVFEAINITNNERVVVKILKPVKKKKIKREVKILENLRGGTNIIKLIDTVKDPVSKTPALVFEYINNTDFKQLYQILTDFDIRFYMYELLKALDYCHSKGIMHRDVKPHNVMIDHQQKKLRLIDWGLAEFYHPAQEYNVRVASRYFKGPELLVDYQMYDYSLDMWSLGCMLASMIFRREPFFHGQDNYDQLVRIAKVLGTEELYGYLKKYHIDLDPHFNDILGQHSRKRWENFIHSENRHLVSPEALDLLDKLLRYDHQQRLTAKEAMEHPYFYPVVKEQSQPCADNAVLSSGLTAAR
T9 sequence (P49137 whole entry): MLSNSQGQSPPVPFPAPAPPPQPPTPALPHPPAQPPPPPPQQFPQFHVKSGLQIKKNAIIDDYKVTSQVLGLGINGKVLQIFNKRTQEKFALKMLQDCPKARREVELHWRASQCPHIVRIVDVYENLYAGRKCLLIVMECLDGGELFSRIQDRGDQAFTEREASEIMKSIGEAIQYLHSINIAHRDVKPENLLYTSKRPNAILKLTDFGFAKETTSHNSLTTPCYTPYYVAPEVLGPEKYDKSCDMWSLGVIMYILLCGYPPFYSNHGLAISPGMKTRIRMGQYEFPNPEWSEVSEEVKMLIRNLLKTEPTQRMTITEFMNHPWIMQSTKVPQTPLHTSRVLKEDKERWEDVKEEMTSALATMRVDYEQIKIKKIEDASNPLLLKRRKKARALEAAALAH
T14 sequence (P54760 16-987): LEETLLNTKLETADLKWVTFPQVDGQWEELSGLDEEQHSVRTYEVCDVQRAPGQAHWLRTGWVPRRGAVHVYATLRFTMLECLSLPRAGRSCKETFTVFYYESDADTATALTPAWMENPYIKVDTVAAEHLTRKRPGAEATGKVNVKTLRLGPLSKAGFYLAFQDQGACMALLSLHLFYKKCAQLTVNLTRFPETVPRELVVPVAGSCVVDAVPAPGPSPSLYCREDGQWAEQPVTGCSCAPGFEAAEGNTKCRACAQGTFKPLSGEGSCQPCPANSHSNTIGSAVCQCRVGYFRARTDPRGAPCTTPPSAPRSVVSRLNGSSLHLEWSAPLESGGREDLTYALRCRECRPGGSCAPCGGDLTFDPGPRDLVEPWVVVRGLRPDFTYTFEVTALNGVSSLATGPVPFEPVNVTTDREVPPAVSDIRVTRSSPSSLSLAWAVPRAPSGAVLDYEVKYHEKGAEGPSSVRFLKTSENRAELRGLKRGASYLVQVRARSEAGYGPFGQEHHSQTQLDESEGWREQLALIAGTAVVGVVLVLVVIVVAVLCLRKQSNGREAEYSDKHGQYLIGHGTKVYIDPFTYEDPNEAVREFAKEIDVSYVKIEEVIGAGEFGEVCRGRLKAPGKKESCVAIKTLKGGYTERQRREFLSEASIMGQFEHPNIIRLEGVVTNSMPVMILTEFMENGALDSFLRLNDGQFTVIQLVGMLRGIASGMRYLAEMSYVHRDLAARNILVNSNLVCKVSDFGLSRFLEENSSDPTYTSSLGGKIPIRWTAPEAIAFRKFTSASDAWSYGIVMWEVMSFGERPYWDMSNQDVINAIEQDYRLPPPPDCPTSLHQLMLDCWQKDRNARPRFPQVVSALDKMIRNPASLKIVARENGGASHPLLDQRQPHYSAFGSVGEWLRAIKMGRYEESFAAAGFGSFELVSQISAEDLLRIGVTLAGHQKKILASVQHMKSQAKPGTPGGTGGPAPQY
T6 sequence (Q9HCP0 whole entry): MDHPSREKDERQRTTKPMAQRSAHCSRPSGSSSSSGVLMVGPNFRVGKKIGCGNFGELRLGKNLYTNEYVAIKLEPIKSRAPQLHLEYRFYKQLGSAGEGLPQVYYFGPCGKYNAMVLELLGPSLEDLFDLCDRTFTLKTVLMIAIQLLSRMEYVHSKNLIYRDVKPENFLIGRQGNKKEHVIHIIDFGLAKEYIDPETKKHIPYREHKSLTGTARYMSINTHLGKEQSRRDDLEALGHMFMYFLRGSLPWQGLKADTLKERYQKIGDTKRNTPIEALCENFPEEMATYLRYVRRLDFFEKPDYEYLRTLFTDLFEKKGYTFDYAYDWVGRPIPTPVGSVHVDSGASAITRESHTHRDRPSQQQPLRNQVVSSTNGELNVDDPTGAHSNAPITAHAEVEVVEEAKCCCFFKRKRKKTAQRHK
T12 sequence (Q9NRW4 whole entry): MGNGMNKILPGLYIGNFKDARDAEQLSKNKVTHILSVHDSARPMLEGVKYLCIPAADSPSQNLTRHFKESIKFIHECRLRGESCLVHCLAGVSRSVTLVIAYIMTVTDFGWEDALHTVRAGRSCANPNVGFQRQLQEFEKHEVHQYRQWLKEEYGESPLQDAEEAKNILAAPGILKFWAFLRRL

COc1ccc(-n2c(SCc3nc(-c4ccc(C)cc4)no3)nnc2-c2ccncc2)cc1 [Compound 1]
IC50 (canonical Wnt signaling): 1010 nM
activity at 10 µM (PKG1α(h)): 106%
activity at 10 µM (MST1(h)): 106%
activity at 10 µM (Abl(h)): 93%
Axin2, SP5 and NKD1 mRNA levels (SW480 cells [1]): dose dependent reduction
Axin2, SP5 and NKD1 mRNA levels (DLD-1 cells): dose dependent reduction
IC50 [2]: 420 nM
activity at 10 µM (SHP-1(h)): 102%
activity at 10 µM (cKit(h)): 116%
activity at 10 µM (CK1γ1(h)): 100%
activity at 10 µM (AMPKα1(h)): 95%
activity at 10 µM (CDK6/cyclinD3(h)): 94%
activity at 10 µM (MAPKAP-K2(h)): 85%
activity at 10 µM (CK2α2(h)): 104%
activity at 10 µM (Plk3(h)): 104%
effect against the TNF-α pathway (TNF-α pathway): no substantial activating or inhibitory effect
activity at 10 µM (DUSP22(h)): 101%
activity at 10 µM (ROCK-I(h)): 100%
activity at 10 µM (EphB4(h)): 105%
activity at 10 µM (TCPTP(h)): 100%
IC50 (SW480 cells [3]): ~11500 nM
